Data taken from patent US20100273835A1, “NOVEL COMPOUNDS” (PROBIODRUG AG, priority 2007, published 2010).
Values belong to the compound of their own block, whether it stands above or below them.

Experiments:
[1] = target: T1, Recombinant human prolyl oligopeptidase (Homo sapiens, UniProt P48147); assay: Determination of IC50- and Ki-values of PEP-inhibitors, chromogenic substrate Cbz-Gly-L-Pro-pNA; type: biochemical; conditions: for Ki: 4 substrate and 7 inhibitor concentrations, competitive inhibition, pH 7.6, 30° C.; for IC50 / IC50 PEP (M): substrate 0.15 mM, HEPES buffer pH 7.6, 30° C., n.i. means no inhibition
T1 construct: made in house; host or cells: E. coli
T1 sequence (P48147 1-710): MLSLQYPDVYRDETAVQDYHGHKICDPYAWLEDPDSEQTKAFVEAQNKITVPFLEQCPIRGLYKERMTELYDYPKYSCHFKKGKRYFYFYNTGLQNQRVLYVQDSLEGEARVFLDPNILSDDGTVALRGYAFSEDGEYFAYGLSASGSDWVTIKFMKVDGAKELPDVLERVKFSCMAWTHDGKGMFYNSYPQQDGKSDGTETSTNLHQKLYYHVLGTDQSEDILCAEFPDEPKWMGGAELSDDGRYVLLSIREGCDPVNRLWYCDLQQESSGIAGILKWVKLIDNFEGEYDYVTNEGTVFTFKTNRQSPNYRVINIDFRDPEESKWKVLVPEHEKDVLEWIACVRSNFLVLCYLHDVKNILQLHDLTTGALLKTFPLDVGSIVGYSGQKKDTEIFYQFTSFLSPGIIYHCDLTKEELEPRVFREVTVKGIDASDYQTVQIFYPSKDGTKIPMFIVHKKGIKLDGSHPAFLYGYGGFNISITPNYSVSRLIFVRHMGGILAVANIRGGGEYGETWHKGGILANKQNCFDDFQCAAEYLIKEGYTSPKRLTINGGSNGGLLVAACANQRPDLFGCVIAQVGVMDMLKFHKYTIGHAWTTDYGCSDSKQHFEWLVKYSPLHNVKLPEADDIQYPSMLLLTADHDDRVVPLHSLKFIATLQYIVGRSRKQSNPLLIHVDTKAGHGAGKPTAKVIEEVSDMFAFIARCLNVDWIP
Description: Recombinant human prolyl oligopeptidase was used for measurement. Recombinant expression was performed in E. coli under standard conditions as described elsewhere in the state of the art.
For activity measurements the chromogenic substrate Cbz-Gly-L-Pro-pNA was used in HEPES buffer pH 7.6 containing 50 mM HEPES, 200 mM NaCl, 1 mM EDTA, 1 mM DTT, 0.006% Brij35. Measurements were carried out at 30° C. Release of pNA were monitored continuously at 405 nm.
IC50 values were calculated using non-linear regression to a 4-parameter equation (Prism 4.0, GraphPad).
For Ki determination 4 substrate (0.15 mM, 0.08 mM 0.04 mM, 0.02 mM) and 7 inhibitor concentrations in an appropriate range were used. Calculations were performed by multiple non-linear regression analysis to the equation for competitive inhibition using GraFit 5.0 Software (Erithacus Software).

[2] = tested on: basal secretion of IL-6, human glial U-343 cells; assay: IL-6 ELISA, basal secretion of IL-6 into conditioned medium; type: cell-based; conditions: inhibitor 20 μM, 24 hours, serum-free medium, untreated = 100%, read-out: Extracellular IL-6 concentration, % of untreated cells
Description: To analyze basal secretion of IL-6, human glial U-343 cells were cultured in 6 well plates (1.5×10^6 cells/well, Greiner) and treated with specific PEP inhibitors as indicated (20 μM each) for 24 hours in serum-free D-MEM medium (Invitrogen). Aliquots of 40 μl conditioned medium were used to quantify the amount of secreted IL-6 by an human-specific IL-6 ELISA (Biosource) following the manufacturer's instructions. All data were obtained in quadruplicate. For the calculation of the IL-6 concentration in the cell culture medium after PEP-inhibitor treatment, the basal IL-6 concentration of the cell culture medium of untreated cell samples was set to 100%. The results of the measurement of the IL-6 concentration with PEP-inhibitor treated cells are presented as % of the untreated cell samples.
(§1) The human glioma cell line, U-343 and the human neuroblastoma cell line, SH-SY5Y were maintained in Dulbecco's modified Eagle's medium (DMEM) containing 10% fetal bovine serum (Gibco BRL, Karlsruhe, Germany) and incubated at 37° C. in a 5% CO2 atmosphere. Culture media contained in general 60 μg/ml gentamycin (Gibco BRL, Karlsruhe, Germany).

[3] = tested on: beta-amyloid peptides 1-40 and 1-42, U-343 and SH-SY5Y cells; assay: Beta-amyloid ELISA, secreted beta-amyloid peptides in conditioned medium; type: cell-based; conditions: Homo sapiens; inhibitor 20 μM, 24 hours; untreated = 100%; FIG. 2: Abeta 1-42, SH-SY5Y cells; read-out: Extracellular Abeta-concentration % of control
Description: as §1
To quantify intracellular and extracellular concentrations of beta-amyloid peptides, 1-40 and 1-42, U-343 and SH-SY5Y cells were cultured in 6 well plates (1.5×10^6 cells/well) and treated with specific PEP inhibitors (20 μM each) for 24 hours. For quantitation of secreted beta-amyloid peptides the conditioned medium was collected and concentrated by lyophylisation. Likewise, after determination of the cell numbers/well (casy cell counter I, Schärfe System, Reutlingen, Germany), cells were lyzed with cell extraction buffer (Biosource, Solingen, Germany) according to the manufacturer's protocol. The protein concentration was determined by the method of Bradford (1976). Aliquots of 100 μl were used to quantify beta-amyloid peptides 1-40 and 1-42 in quadruplicate by ELISA (IBL, Hamburg, Germany) following the manufacturer's instructions. All obtained intracellular and extracellular concentrations were normalized to cell numbers and protein concentration, respectively.
For the calculation of the concentration of beta-amyloid peptides 1-40 and 1-42 in the cell culture medium after PEP-inhibitor treatment, the basal concentration of beta-amyloid peptides 1-40 and 1-42 in the cell culture medium of untreated cell samples was set to 100%. The results of the measurement of the concentration of beta-amyloid peptides 1-40 and 1-42 with PEP-inhibitor treated cells are presented as % of the untreated cell samples.

Compound: O=C(N[C@@H](Cc1ccccc1)C(=O)c1nc2ccccc2s1)OCc1ccccc1 [Example 2, 2-[Cbz-L-Phe]Benzothiazole]
IC50 [1]: > 100 µM | activity at 20 µM [2]: 44% | activity at 20 µM [3]: 295%

Compound: O=C(N[C@@H](Cc1ccccc1)C(=O)c1nccs1)OCc1ccccc1 [Example 5, 2-[Cbz-L-Phe]Thiazole]
Ki [1]: 0.00115 µM | IC50 [1]: 0.0012 µM | activity at 20 µM [2]: 29% | activity at 20 µM [3]: 193%

Compound: O=C(N[C@@H](Cc1ccccc1)C(=O)c1ccccc1)OCc1ccccc1 [Example 9, Cbz-L-Phe-Benzene]
Ki [1]: 1.6 µM | IC50 [1]: 5.2 µM | activity at 20 µM [2]: 18% | activity at 20 µM [3]: 330%

Compound: C[C@H](NC(=O)OCc1ccccc1)C(=O)c1nccs1 [Example 10, 2-[Cbz-L-Ala]Thiazole]
Ki [1]: 2.3 µM | IC50 [1]: 7.1 µM | activity at 20 µM [2]: 78% | activity at 20 µM [3]: 107%

Compound: CC(C)(C)OC(=O)N[C@@H](Cc1ccc([N+](=O)[O-])cc1)C(=O)c1nccs1 [Example 11, 2-[Boc-L-(p-NO2)Phe]Thiazole]
IC50 [1]: 25 µM | activity at 20 µM [2]: 62% | activity at 20 µM [3]: 178%

Compound: CC(C)(C)OC(=O)N[C@@H](Cc1ccc([N+](=O)[O-])cc1)C(=O)c1ccco1 [Example 12, 2-[Boc-L-(p-NO2)Phe]Furan]
IC50 [1]: 14 µM | activity at 20 µM [2]: 37% | activity at 20 µM [3]: 166%

Compound: C=CCOC(=O)N[C@@H](Cc1ccccc1)C(=O)c1nc2ccccc2s1 [Example 13, 2-[Aloc-L-Phe]Benzothiazole]
IC50 PEP (M) [1]: n.i. | activity at 20 µM [2]: 69% | activity at 20 µM [3]: 106%

Compound: C=CCOC(=O)N[C@@H](Cc1ccccc1)C(=O)c1nccs1 [Example 14, 2-[Aloc-L-Phe]Thiazole]
activity at 20 µM [2]: 67% | activity at 20 µM [3]: 115%

Compound: C=CCOC(=O)N[C@@H](Cc1ccccc1)C(=O)c1ccco1 [Example 15, 2-[Aloc-L-Phe]Furan]
IC50 [1]: 10 µM | activity at 20 µM [2]: 78% | activity at 20 µM [3]: 116%

Compound: CC(C)(C)OC(=O)N[C@@H](Cc1c[nH]c2ccccc12)C(=O)c1nc2ccccc2s1 [Example 16, 2-[Boc-L-Trp]Benzothiazole]
IC50 [1]: 40 µM | activity at 20 µM [2]: 23% | activity at 20 µM [3]: 177%

Compound: CC(C)(C)OC(=O)N[C@@H](Cc1c[nH]c2ccccc12)C(=O)c1nccs1 [Example 17, 2-[Boc-L-Trp]Thiazole]
IC50 [1]: 94 µM | activity at 20 µM [2]: 38% | activity at 20 µM [3]: 143%

Compound: CC(C)(C)OC(=O)N[C@@H](Cc1c[nH]c2ccccc12)C(=O)c1ccco1 [Example 18, 2-[Boc-L-Trp]Furan]
IC50 [1]: 14 µM | activity at 20 µM [2]: 24% | activity at 20 µM [3]: 163%

Compound: CC(C)C[C@H](NC(=O)OC(C)(C)C)C(=O)c1nc2ccccc2s1 [Example 20, 2-[Boc-L-Leu]Benzothiazole]
activity at 20 µM [2]: 63% | activity at 20 µM [3]: 375%

Compound: CC(C)(C)OC(=O)N[C@@H](Cc1ccc([N+](=O)[O-])cc1)C(=O)c1nc2ccccc2s1 [Example 21, 2-[Boc-L-(p-NO2)Phe]Benzothiazole]
IC50 PEP (M) [1]: n.i. | activity at 20 µM [2]: 96% | activity at 20 µM [3]: 311%

Compound: CC(C)(C)OC(=O)N[C@@H](Cc1ccc(I)cc1)C(=O)c1ccco1 [Example 22, 2-[Boc-L-(p-Iodo)Phe]Furan]
IC50 PEP (M) [1]: n.i. | activity at 20 µM [2]: 50% | activity at 20 µM [3]: 232%

Compound: CC(C)(C)OC(=O)N1CCC[C@H]1C(=O)c1nc2ccccc2s1 [Example 24, 2-[Boc-L-Pro]Benzothiazole]
activity at 20 µM [2]: 26% | activity at 20 µM [3]: 136%

Continued, in another order:

Ki [1]: 0.98 µM | IC50 [1]: 7 µM
Compound: O=C(c1nc2ccccc2s1)[C@@H]1CCCN1C(=O)OCc1ccccc1 [Example 1, 2-[Cbz-L-Pro]Benzothiazole]
activity at 20 µM [2]: 40% | activity at 20 µM [3]: 155%

IC50 [1]: 1 µM
Compound: O=C(N[C@@H](Cc1ccccc1)C(=O)c1cccs1)OCc1ccccc1 [Example 3, 2-[Cbz-L-Phe]Thiophene]
activity at 20 µM [2]: 23% | activity at 20 µM [3]: 339%

IC50 PEP (M) [1]: n.i.
Compound: O=C(N[C@H](Cc1ccccc1)C(=O)c1nccs1)OCc1ccccc1 [Example 4, 2-[Cbz-D-Phe]Thiazole]
activity at 20 µM [2]: 44% | activity at 20 µM [3]: 172%

IC50 [1]: 4.5 µM
Compound: C[C@H](NC(=O)OCc1ccccc1)C(=O)c1nc2ccccc2s1 [Example 6, 2-[Cbz-L-Ala]Benzothiazole]
activity at 20 µM [2]: 36% | activity at 20 µM [3]: 114%

IC50 [1]: 39 µM
Compound: O=C(N[C@@H](Cc1ccccc1)C(=O)c1ccccn1)OCc1ccccc1 [Example 7, 2-[Cbz-L-Phe]Pyridine]
activity at 20 µM [2]: 31% | activity at 20 µM [3]: 236%

IC50 PEP (M) [1]: n.i.
Compound: O=C(N[C@@H](Cc1ccccc1)C(=O)c1cc2ccccc2s1)OCc1ccccc1 [Example 8, 2-[Cbz-L-Phe]Benzo[b]thiophene]
activity at 20 µM [2]: 27% | activity at 20 µM [3]: 310%

IC50 PEP (M) [1]: n.i.
Compound: O=C(/C=C/c1ccccc1)N[C@@H](Cc1ccccc1)C(=O)c1nccs1 [Example 19, 2-[Cinnamoyl-L-Phe]Thiazole]
activity at 20 µM [2]: 58% | activity at 20 µM [3]: 230%

IC50 PEP (M) [1]: n.i.
Compound: CC(C)(C)OC(=O)N[C@@H](Cc1ccc(I)cc1)C(=O)c1nccs1 [Example 23, 2-[Boc-L-(p-Iodo)Phe]Thiazole]
activity at 20 µM [2]: 41% | activity at 20 µM [3]: 210%

Ki [1]: 2.3 µM | IC50 [1]: 7.3 µM
Compound: CC(C)(C)OC(=O)N1CCC[C@H]1C(=O)c1nccs1 [Example 25, 2-[Boc-L-Pro]Thiazole]
activity at 20 µM [2]: 59% | activity at 20 µM [3]: 111%

Ki [1]: 52 µM | IC50 [1]: 77 µM
Compound: CC(C)(C)OC(=O)N[C@@H](Cc1ccccc1)C(=O)c1nccs1 [Example 26, 2-[Boc-L-Phe]Thiazole]
activity at 20 µM [2]: 66% | activity at 20 µM [3]: 168%
